From patent US5624812A, “Method for measuring carbon dioxide and reagent therefor” (Toyo Boseki Kabushiki Kaisha, priority 1993, dated 1997)

What was measured:
[1] = target: T1, phosphoenolpyruvate carboxylase yielded by Acetobacter hansenii IFO 14820 (ATCC 35959) (Novacetimonas hansenii, UniProt A0ABQ0SBC7)
T1 sequence (A0ABQ0SBC7 1-933): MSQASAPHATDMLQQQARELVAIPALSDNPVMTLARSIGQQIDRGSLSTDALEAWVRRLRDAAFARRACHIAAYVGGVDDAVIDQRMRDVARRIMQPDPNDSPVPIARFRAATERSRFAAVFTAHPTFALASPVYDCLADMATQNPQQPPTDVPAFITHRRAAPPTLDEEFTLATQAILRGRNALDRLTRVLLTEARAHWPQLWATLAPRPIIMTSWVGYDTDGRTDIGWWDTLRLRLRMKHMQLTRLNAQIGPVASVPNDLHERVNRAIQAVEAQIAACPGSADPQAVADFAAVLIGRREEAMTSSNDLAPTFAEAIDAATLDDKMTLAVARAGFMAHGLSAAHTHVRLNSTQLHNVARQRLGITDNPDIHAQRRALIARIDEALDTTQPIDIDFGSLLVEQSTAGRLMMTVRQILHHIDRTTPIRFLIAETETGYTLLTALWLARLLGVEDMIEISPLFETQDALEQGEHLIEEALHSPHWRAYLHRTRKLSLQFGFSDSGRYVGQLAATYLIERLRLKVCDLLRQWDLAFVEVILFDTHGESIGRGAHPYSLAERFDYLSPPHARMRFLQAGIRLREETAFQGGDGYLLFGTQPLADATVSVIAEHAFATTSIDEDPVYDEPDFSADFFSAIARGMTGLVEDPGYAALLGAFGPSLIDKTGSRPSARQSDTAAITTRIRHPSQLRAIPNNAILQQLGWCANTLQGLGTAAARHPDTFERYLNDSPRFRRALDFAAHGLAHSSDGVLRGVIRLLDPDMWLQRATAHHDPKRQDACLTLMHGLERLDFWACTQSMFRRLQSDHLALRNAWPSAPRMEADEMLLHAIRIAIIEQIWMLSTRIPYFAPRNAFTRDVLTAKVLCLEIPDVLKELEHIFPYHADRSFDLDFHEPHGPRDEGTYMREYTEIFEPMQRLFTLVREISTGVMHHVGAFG
Protocol: A reaction mixture (2.9 ml) containing 50 mM Tris-HCl, 10 mM Na2 CO3, 3.2 mM phosphoenolpyruvic acid, 100 mM MgSO4, 0.14 mM NADH and 50 U/ml malate dehydrogenase is prepared in a cuvette (d=1 cm) and preheated at 30° C. for about 5 minutes. An enzyme solution (0.1 ml) is added thereto and the mixture is gently stirred. A change in absorbance at 340 nm is recorded for 2-3 minutes with a spectrophotometer using water adjusted to 30° C. as a control, and change in absorbance per minute is calculated from the initial linear portion thereof (ΔOD test). A blank test is performed by using 50 mM phosphate buffer (pH 7.0) in place of the enzyme solution and following the steps to determine changes in absorbance per minute (ΔOD blank).

[2] = substrate: C=C(OP(=O)(O)O)C(=O)O; assay: purified protein, by the assay type; settings: pH 7.0; 30.0 °C

Molecule: Nc1ncnc2c1ncn2[C@@H]1O[C@H](COP(=O)(O)OP(=O)(O)O)[C@@H](O)[C@H]1O [ADP]
- Inhibition by ADP [1]: Not inhibited

Molecule: CC(=O)SCCNC(=O)CCNC(=O)[C@H](O)C(C)(C)COP(=O)(O)OP(=O)(O)OC[C@H]1O[C@@H](n2cnc3c(N)ncnc32)[C@H](O)[C@@H]1OP(=O)(O)O [acetyl CoA]
- Activation by acetyl CoA [1]: Not activated

B1: phosphoenolpyruvate carboxylase yielded by Acetobacter hansenii IFO 14820 (ATCC 35959) (Novacetimonas hansenii) (protein)
chain: MSQASAPHATDMLQQQARELVAIPALSDNPVMTLARSIGQQIDRGSLSTDALEAWVRRLRDAAFARRACHIAAYVGGVDDAVIDQRMRDVARRIMQPDPNDSPVPIARFRAATERSRFAAVFTAHPTFALASPVYDCLADMATQNPQQPPTDVPAFITHRRAAPPTLDEEFTLATQAILRGRNALDRLTRVLLTEARAHWPQLWATLAPRPIIMTSWVGYDTDGRTDIGWWDTLRLRLRMKHMQLTRLNAQIGPVASVPNDLHERVNRAIQAVEAQIAACPGSADPQAVADFAAVLIGRREEAMTSSNDLAPTFAEAIDAATLDDKMTLAVARAGFMAHGLSAAHTHVRLNSTQLHNVARQRLGITDNPDIHAQRRALIARIDEALDTTQPIDIDFGSLLVEQSTAGRLMMTVRQILHHIDRTTPIRFLIAETETGYTLLTALWLARLLGVEDMIEISPLFETQDALEQGEHLIEEALHSPHWRAYLHRTRKLSLQFGFSDSGRYVGQLAATYLIERLRLKVCDLLRQWDLAFVEVILFDTHGESIGRGAHPYSLAERFDYLSPPHARMRFLQAGIRLREETAFQGGDGYLLFGTQPLADATVSVIAEHAFATTSIDEDPVYDEPDFSADFFSAIARGMTGLVEDPGYAALLGAFGPSLIDKTGSRPSARQSDTAAITTRIRHPSQLRAIPNNAILQQLGWCANTLQGLGTAAARHPDTFERYLNDSPRFRRALDFAAHGLAHSSDGVLRGVIRLLDPDMWLQRATAHHDPKRQDACLTLMHGLERLDFWACTQSMFRRLQSDHLALRNAWPSAPRMEADEMLLHAIRIAIIEQIWMLSTRIPYFAPRNAFTRDVLTAKVLCLEIPDVLKELEHIFPYHADRSFDLDFHEPHGPRDEGTYMREYTEIFEPMQRLFTLVREISTGVMHHVGAFG
- Km [2]: 210 µM
